The source of these data is PubChem BioAssay (NCI).

Test systems include A498 renal; 786-0 renal; NCI-H460 lung; IGROV1 ovarian.
Holding throughout (experiment): inhibition of tumour cell growth, NCI panel, 48 h

Structures are written as SMILES.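 A five-concentration, 48-hour dose response in 96-well plates underlies each endpoint, interpolated linearly between surrounding concentrations. TGI: total growth inhibition.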

Turning to `Nc1nc(Cl)c(CO)c(NCC2(CO)CC(CCc3ccccc3)C2)n1` (stereo not given), the TGI in the assay with A498 renal is > 100 µM; in the assay with 786-0 renal, > 100 µM; in the assay on NCI-H460 lung, 56.9 µM.

Consider `COC(=O)/C=C(/C=C1/C(C#N)=C(N)N(c2ccc(Cl)cc2)C1(C)/C(=C/C(=O)OC)C(=O)OC)C(=O)OC` (stereo not given), for which the TGI in the assay with IGROV1 ovarian, with A498 renal, in the assay with 786-0 renal and with NCI-H460 lung was > 100 µM throughout.

Regarding `Oc1c2cc(Cl)cc1COCc1cc(Cl)cc(c1O)COCc1cc(Cl)cc(c1O)COC2`, the TGI in the assay with IGROV1 ovarian was > 100 µM; in the assay on A498 renal, > 100 µM; in the assay with 786-0 renal, 37.7 µM; with NCI-H460 lung, > 100 µM.

For the compound `OC1(c2ccc(Cl)cc2)C(N2CCCC2)c2ccccc2C2=NCCN21` (stereo not given), the TGI in the assay with IGROV1 ovarian is 52.7 µM; with A498 renal it was 60.9 µM; in the assay on 786-0 renal, > 100 µM; in the assay with NCI-H460 lung, > 100 µM.

In the case of `Cc1cc2c(cc1C(=O)CCC(=O)O)CC1(C2)Cc2cc(C)c(C(=O)CCC(=O)O)cc2C1`, the TGI in the assay with IGROV1 ovarian, with A498 renal, in the assay on 786-0 renal and with NCI-H460 lung was > 100 µM each time.

`CCOCc1c(C)cc(C)c(C2C(C(=O)c3ccccc3)N3c4ccccc4C=CC3C2(C#N)C(=O)OCC)c1C` (stereo not given): the TGI in the assay with IGROV1 ovarian is 46.5 µM; in the assay with A498 renal, > 100 µM; in the assay with 786-0 renal it was > 100 µM; in the assay with NCI-H460 lung, > 100 µM.

Regarding `COC(=O)CC(c1cn(S(=O)(=O)c2ccc(C)cc2)c2ccccc12)C1C[C@@H](C(=O)OC)N(C(=O)OC(C)(C)C)C1=O` (stereo not given in full), the TGI with IGROV1 ovarian, with A498 renal, with 786-0 renal and with NCI-H460 lung was > 100 µM each time.

Turning to `O=c1c2ccccc2[nH]c2c(Cl)cc(Cl)c(NC3CCCCC3)c12`, the TGI in the assay on IGROV1 ovarian is 96.2 µM; in the assay on A498 renal, 43.3 µM; in the assay on 786-0 renal, > 100 µM.

Take `O=C1CCC2(c3ccccc3)Nc3ccncc3N12` (stereo not given): the TGI with 786-0 renal and with NCI-H460 lung was > 10 µM each time.

Take `COc1cc(/C=N\N(C)C)cc(/C=N/N(C)C)c1O`: the TGI is > 100 µM in the assay with A498 renal, 74.1 µM in the assay with 786-0 renal and > 100 µM in the assay on NCI-H460 lung.

As to `CC(CCC(=O)O)(c1ccc(O)cc1)c1ccc(O)cc1`, the TGI with IGROV1 ovarian, in the assay with A498 renal, in the assay on 786-0 renal and in the assay with NCI-H460 lung was > 100 µM each time.

In the case of `O=c1cc(N2CCNCC2)nc2ccccn12`, the TGI with IGROV1 ovarian, with A498 renal and in the assay on 786-0 renal was > 100 µM each time.

For `C[N+](C)(C)CCCSc1nc2ccccc2[nH]1`, the TGI with IGROV1 ovarian, in the assay on A498 renal, in the assay on 786-0 renal and with NCI-H460 lung was > 100 µM each time.

For `Nc1nc(I)nc2c1ncn2C1OC(COS(N)(=O)=O)C(O)C1O` (stereo not given), the TGI in the assay with IGROV1 ovarian was 0.0401 µM; in the assay with A498 renal it was < 0.01 µM; with 786-0 renal, 0.0297 µM; in the assay on NCI-H460 lung, 0.108 µM.

In the case of `CC(C)(C)C(=O)OCOP(=O)(OCOC(=O)C(C)(C)C)OCC1OC(n2ccc(=O)[nH]c2=O)C(N=[N+]=[N-])C1O` (stereo not given), the TGI with IGROV1 ovarian came to 17.5 µM; in the assay on 786-0 renal, 10.3 µM; in the assay on NCI-H460 lung, 12.1 µM.

Consider `OC1(c2ccccc2)C2CCN(CC2)C1CN1CCOCC1` (stereo not given), for which the TGI with IGROV1 ovarian, with A498 renal, in the assay with 786-0 renal and in the assay with NCI-H460 lung was > 100 µM each time.

As for `Cc1ccc([N+](=O)[O-])cc1S(=O)(=O)Nc1ccc(C2=NN(c3ccc([N+](=O)[O-])cc3[N+](=O)[O-])C(c3cccs3)C2)cc1` (stereo not given), the TGI is 53.7 µM in the assay with IGROV1 ovarian and 38.6 µM in the assay on 786-0 renal.

In the case of `NCCCCC(NC(=O)C(N)Cc1ccc(O)cn1)C(=O)O` (stereo not given), the TGI in the assay with IGROV1 ovarian, in the assay with A498 renal, in the assay with 786-0 renal and in the assay with NCI-H460 lung was > 100 µM throughout.

As for `N#Cc1c(=O)n(-c2ccccc2)c(O)c2c(N)n[nH]c12`, the TGI in the assay with IGROV1 ovarian, in the assay with A498 renal, with 786-0 renal and in the assay on NCI-H460 lung was > 100 µM in each case.

For `C/C(Cl)=N/OC(=O)Nc1ccc(S(N)(=O)=O)c(C)c1`, the TGI in the assay on IGROV1 ovarian was 33.4 µM; with A498 renal it was 41.3 µM; with 786-0 renal, 4.29 µM; in the assay on NCI-H460 lung it was > 100 µM.

In the case of `CCCC/C=C/C/C=C/CCCCCCCCC(=O)OCC1CCCN2CCCCC12` (stereo not given), the TGI in the assay with A498 renal, in the assay with 786-0 renal and in the assay on NCI-H460 lung was > 100 µM throughout.

As to `c1ccc(-c2nc3ccccc3n3c(CN4CCCCC4)nnc23)cc1`, the TGI in the assay with IGROV1 ovarian, in the assay on A498 renal, with 786-0 renal and in the assay on NCI-H460 lung was > 100 µM each time.

With `O=C1CSSCC(=O)Nc2ccccc2N1`, the TGI in the assay with IGROV1 ovarian, with A498 renal, with 786-0 renal and in the assay with NCI-H460 lung was > 100 µM throughout.

For `CN(C)c1ccc(/C=C2/NC(=S)NC2=O)cc1`, the TGI with IGROV1 ovarian and in the assay on 786-0 renal was > 100 µM throughout.

Take `COC(=O)C1=C(O)C(C(=O)OC)[C@]2(O)[C@H](C(=O)OC)[C@H]1C[C@@H](c1ccc(Cl)cc1)[C@H]2C(=O)OC` (stereo not given in full): the TGI is > 100 µM with IGROV1 ovarian, 27.2 µM in the assay with A498 renal, 23.9 µM in the assay with 786-0 renal and 49.4 µM in the assay with NCI-H460 lung.

Turning to `CN(CCC(=O)O)C1=Nc2ccc(Cl)cc2C(c2ccccc2)=[N+]([O-])C1`, the TGI in the assay on IGROV1 ovarian, in the assay with A498 renal, in the assay with 786-0 renal and in the assay on NCI-H460 lung was > 100 µM throughout.

For the compound `CCN(CC)CCn1nc(N)c2nc3ccccc3nc21`, the TGI with IGROV1 ovarian, in the assay on A498 renal, in the assay with 786-0 renal and with NCI-H460 lung was > 100 µM each time.

As to `COc1cc(/C=C2/SC(c3ccccc3)N(c3ccccc3Cl)C2=O)cc(OC)c1OC` (stereo not given), the TGI in the assay on A498 renal, with 786-0 renal and in the assay on NCI-H460 lung was > 100 µM throughout.

As to `O=C1c2[nH]c3ccc(Br)cc3c2CCN1Cc1ccc(Cl)cc1`, the TGI in the assay on IGROV1 ovarian came to 35.5 µM; in the assay on A498 renal it was 34.1 µM; with 786-0 renal, 24.1 µM.

Take `CCC(C)(C)C1CCC2c3c([nH]c4ccccc34)C3C(=O)N(c4ccc(OC)cc4)C(=O)C3C2C1` (stereo not given): the results for the TGI with IGROV1 ovarian, in the assay on 786-0 renal and in the assay on NCI-H460 lung were 90.8 µM, 25.9 µM and > 100 µM, respectively.
